Data taken from patent US20250052751A1, “COMPOSITIONS AND METHODS FOR DIAGNOSING AUTOIMMUNE AQUAPORINOPATHY” (The Regents of the University of California, priority 2023, published 2025).

Assays:
[1] = tested on: draining lymph node cells; assay: Proliferation assay, ^3H-thymidine incorporation after s.c. peptide immunization; format: cell-based, mouse
Experimental: (§1) FIGS. 2A-2F. Pathogenic AQP4 determinants bind I-A^b with high affinity and elicit proliferation of AQP4: I-A^b-specific TCR-bearing T cells in AQP4-deficient mice. (FIG. 2A) WT or AQP4^−/− mice were immunized s.c. with peptides indicated. Peptide-specific proliferation of draining lymph node cells was measured by 3H-thymidine incorporation (mean±SEM, representative of five experiments). (FIG. 2B) Lymph node cells from AQP4 immunized WT or AQP4^−/− mice were cultured for 3 days with cognate antigen under Th17 polarizing conditions. AQP4 p133-149- and p202-218-specific Th17 cells from AQP4/donors induce paralysis in WT recipient mice. (FIG. 2C) IEDB, an in silico method for predicting determinants within proteins that bind MHC alleles, was used to identify AQP4 amino acid sequences anticipated to bind I-A^b for recognition by AQP4-specific/I-A^b-restricted CD4^+ T cells. 1/IC50 is plotted against the first amino acid for each overlapping AQP4 15 mer. Peaks correspond to increased predicted binding affinity. (FIG. 2D) Purified I-A^b molecules were tested biochemically for peptide binding affinity using a competitive binding assay between a radiolabeled high-affinity competitor peptide and unlabeled peptides (22). Lower IC50 values indicate higher binding affinity. Boxed amino acids designate the core binding regions. (FIGS. 2E-2F) Lymph node T cells isolated from WT or AQP4−/− mice immunized with AQP4 p133-149 or p202-218 were stained with I-A^b:p133-149 and […] tetramers, bead-enriched and analyzed by flow cytometry. […] Each data point represents one mouse. ****p<0.0001 (Mann Whitney U test).
(§2) FIGS. 4A-4B. Negative selection of AQP4 p133-149-reactive T cells is bypassed partially in mice deficient in thymic AQP4 expression. (FIG. 4A) AQP4^−/− WT, Foxn1cre-AQP4^fl/fl, Aire^−/−, or Foxn1cre-Fezf2^fl/fl mice were immunized s.c. with peptides indicated. Peptide-specific proliferation of draining lymph node cells was measured by 3H-thymidine incorporation (mean±SEM, representative of five experiments). Comparisons within the five experiments for p133-149 at […]: WT vs. AQP4^−/− (p=0.008), WT vs. Foxn1cre-AQP4^fl/fl (p=0.008). (FIG. 4B) Ten days after peptide immunization, CD4^+ T cells from draining lymph nodes were analyzed for I-A^b: peptide tetramer binding by flow cytometry. Each data point represents the frequency (mean±SEM) of CD4^+ T cells bound to cognate antigen-tetramer in a single mouse. […] For p133-149: WT vs. Aire^−/− (p=0.9), WT vs. Foxn1cre-Fezf2^fl/fl (p=0.3). For p202-218: WT vs. Foxn1cre-AQP4^fl/fl (p=0.3), WT vs. Aire^−/− (p=0.06).
(§3) Proliferation assays. Mice were immunized subcutaneously (s.c.) with 100 μg of AQP4, MOG or IRBP peptide in CFA containing 400 μg M. tuberculosis H37Ra (Difco Laboratories). Lymph nodes were harvested on day 10-12 and cultured at 2×10^5/well with various concentrations of peptide in triplicate wells for 72 hours. […] of ^3H-thymidine was added 18 hours prior to cell harvest, and data are presented as counts per minute (CPM). Stimulation Index (SI) was calculated by dividing CPM in wells with Ag by CPM in wells with no antigen controls of each assay test group.

[2] = molecular target: T1, MHC class II I-A^b molecules (Mus musculus, UniProt P14434+P14483); assay: I-A^b affinity assay (competitive binding against a radiolabeled high-affinity peptide); conditions: purified I-A^b; unlabeled peptide vs radiolabeled high-affinity competitor peptide
T1 construct: made in house
T1 sequence (P14434 24-256): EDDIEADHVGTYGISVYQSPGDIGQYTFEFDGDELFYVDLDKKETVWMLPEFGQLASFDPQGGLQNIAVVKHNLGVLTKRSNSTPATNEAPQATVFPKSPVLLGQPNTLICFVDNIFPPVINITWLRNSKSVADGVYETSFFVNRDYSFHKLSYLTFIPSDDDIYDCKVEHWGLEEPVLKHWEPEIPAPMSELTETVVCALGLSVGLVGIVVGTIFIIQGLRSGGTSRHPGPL
T1 sequence (P14483 28-265): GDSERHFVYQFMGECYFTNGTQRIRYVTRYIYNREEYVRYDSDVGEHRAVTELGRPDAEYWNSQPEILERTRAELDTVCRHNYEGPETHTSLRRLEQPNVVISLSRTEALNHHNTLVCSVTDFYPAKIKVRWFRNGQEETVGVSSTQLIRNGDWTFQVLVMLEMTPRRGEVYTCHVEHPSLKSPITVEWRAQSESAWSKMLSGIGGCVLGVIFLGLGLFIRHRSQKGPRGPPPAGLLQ
Experimental: as §1
Both AQP4 p133-149 and p202-218 are predicted to bind MHC II (I-A^b) with high affinity according to the Immune Epitope Database (IEDB) (FIG. 2C), an in silico method for predicting determinants within proteins that bind allele-specific MHC molecules for presentation to T cells (21). We have now examined AQP4 peptide affinity for I-A^b biochemically. I-A^b molecules that were purified by affinity chromatography were tested in a competitive binding assay between a radiolabeled high-affinity competitor peptide and unlabeled peptides (22). Indeed, peptides containing the two pathogenic AQP4 T cell determinants bound I-A^b with higher affinity than the nonpathogenic AQP4 p24-35 T cell epitope or MOG p35-55 (FIG. 2D).
I-A^b affinity Assay. Purification of MHC class II I-A^b molecules by affinity chromatography, and the performance of assays based on the inhibition of binding of a high affinity radiolabeled peptide to quantitatively measure peptide binding, were performed as described (22). Lower IC50 values indicate higher binding affinity. Excellent binders have affinities less than 100 nM and good binders have affinities less than 1000 nM.

TCRα deficient mice = assay: Adoptive transfer of peptide-primed, AQP4 201-220-cultured Th17 cells into TCRα deficient mice; format: in vivo, mouse; conditions: for clinical CNS autoimmune disease after transfer of primed Th17 cells: donor AQP4-deficient mice primed with the peptide, cells cultured with AQP4 201-220, 2×10^7 T cells into TCRα deficient mice; for meningeal and parenchymal infiltrates vs OVA primed T cells: recipients of primed donor T cells, histological analysis
Experimental: FIGS. 9A-9C. T cells reactive to AQP5, an autoantigen in Sjögren's syndrome also recognize AQP4, the autoantigen in NMO, and can cause CNS autoimmune disease. (FIG. 9A) AQP4-deficient mice were immunized with AQP4 p201-220, AQP5 p174-190 or OVA 323-339. 10-12 days later lymphocytes from draining lymph nodes are removed and cultured with AQP4 201-220 under Th17 polarizing conditions for 72 hours. 2×10^7 T cells were transferred into TCRα deficient mice, followed by 200 ng Pertussis toxin at days 0 and 2. […] Statistics performed using ANOVA with Tukey's test for multiple comparisons. ****P<0.0001.
CNS autoimmune disease induction and analysis. For adoptive induction of CNS disease with primary lymphocytes, mice were immunized s.c. with 100 μg AQP4 or MOG peptides in CFA containing 400 μg M. tuberculosis H37Ra (Difco Laboratories). After 10-12 days, lymph node cells were cultured with 15 μg/ml antigen for 3 days with 20 ng/ml IL-23 and 10 ng/ml IL-6, under Th17 polarizing conditions. 2×10^7 cells were injected i.v. into naïve recipients, which then received 200 ng B. pertussis toxin (Ptx) (List Biological) i.p. on days 0 and 2. Clinical scores: 0=no disease, 1=tail tone loss, 2=impaired righting, 3=severe paraparesis or paraplegia, 4=quadraparesis, and 5=moribund or death.
Histopathology. Brain, spinal cord, optic nerve, kidney and muscle tissue samples were fixed in 10% neutral-buffered formalin, paraffin-embedded, sectioned and stained with H&E. Meningeal and parenchymal inflammatory lesions and areas of demyelination were assessed in a blinded manner as described (39).

CD4^+ T cells = assay: I-A^b:peptide tetramer binding by flow cytometry after peptide immunization; format: cell-based, mouse; conditions: Aire^−/− mice, I-A^b:IRBP p277-289 tetramer
Experimental: as §2
Flow cytometry. For analysis of tetramer binding, AQP4 p133-149, p202-218, IRBP p277-289 and hCLIP p87-101 IA^b tetramers conjugated to PE or APC were provided by the National Institute of Allergy and Infectious Diseases Tetramer Core Facility at Emory University. Lymphocytes were coincubated with 1 mg/ml tetramer conjugated to PE or APC for 2 hours at room temperature, washed and enriched using anti-PE magnetic microbeads (Miltenyi) over a magnetic column. Binding to hCLIP tetramer was used as a negative control. Dead cells were excluded using Live/Dead fixable Aqua Dead Cell Stain Kit (Invitrogen), lineage negative cells were excluded using antibodies to CD11b (M1/70), B220 (RA3-6B2) and CD8 (53-6.7) and positive cells were selected using antibodies to CD3 (145-2C11) and CD4 (RM4.5). 123count eBeads (Invitrogen) were used with unenriched and enriched samples for quantification of the frequency of tet^+CD4^+ T cells (total number of tet^+CD4+ T cells divided by total CD4^+ T cells per mouse). For figures showing tetramer staining, flow cytometry of the unenriched cells are shown. For analysis of GFP^+ T cells, mice were perfused with PBS, and the CNS was dissected, minced, digested with collagenase and DNase I (Roche), and isolated over a Ficoll gradient as described previously (39). Live CD4^+ cells were analyzed with a viability stain (Near-IR), and antibodies to CD11b, B220, CD8 and CD4. Apoptosis was analyzed separately using the same antibody staining, followed by Annexin V and 7-AAD staining in Annexin V binding buffer (BioLegend) per manufacturer's instructions. Cells were quantified using 123count eBeads.

[3] = tested on: draining lymph node cells; assay: T cell cross-reactivity between AQP4 and AQP5, ^3H-thymidine proliferation; format: cell-based, mouse; conditions: AQP4-deficient mice immunized with 100 μg AQP5 p174-190; cells cultured with AQP4 201-220, then restimulated
Experimental: FIG. 8. T cells cross-react with AQP4 and AQP5. AQP4-deficient mice were immunized with 100 μg of AQP5 p174-190. Draining lymph node cells were cultured with AQP4 201-220, then restimulated with the different antigens. Proliferation was measured by ^3H-thymidine incorporation of the stimulation to antigen divided by the background stimulation (mean±SEM).
as §3

Substance: AQP4 p24-35: nonpathogenic AQP4 T cell epitope (VAFKGVWTQAFW) [reference compound]
- discordance in proliferation between AQP4^−/− and WT mice [1]: not observed

Substance: AQP4 p201-220: AQP4 T cell epitope (201-220) that causes CNS autoimmunity in mice (HLFAINYTGASMNPARSFGP; UniProt P55088 201-220, looked up, fragment)
- peptide binding affinity for I-A^b [2]: exceptionally high affinity
- clinical CNS autoimmune disease after transfer of primed Th17 cells (TCRα deficient mice): cause paralysis
- meningeal and parenchymal infiltrates vs OVA primed T cells (TCRα deficient mice): significantly more meningeal and parenchymal infiltrates

Substance: IRBP p277-289: Aire-dependent T cell determinant of interphotoreceptor retinoid-binding protein (FLTVPVSRSLGPL; UniProt P49194 277-289, looked up, fragment) [reference compound]
- expansion of CD4^+ tet^+ T cells (CD4^+ T cells): promoted expansion

Substance: LVGIYFTGCSMNPARSF [AQP5 p174-190, autoantigen in Sjögren's syndrome]
- T cell cross-reactivity [3]: T cell cross-reactivity between AQP5 174-190 and AQP4 201-220
- T cell stimulation (proliferation) [3]: stimulatory
- clinical CNS autoimmune disease after transfer of primed Th17 cells (TCRα deficient mice): cause paralysis
- clinical CNS autoimmune disease after transfer of primed Th17 cells (TCRα deficient mice; listed as AQP5 174-190): can induce clinical and histologic CNS autoimmune disease
- meningeal and parenchymal infiltrates vs OVA primed T cells (TCRα deficient mice): significantly more meningeal and parenchymal infiltrates
